According to paper PMC5626965, “Bifidobacterium bifidum Extracellular Sialidase Enhances Adhesion to the Mucosal Surface and Supports Carbohydrate Assimilation” (mBio, 2017):
Each block holds one compound with its values, some of them ahead of it.

Columns and labels:
His-SiaBb1 = molecular target: T1, His-SiaBb1 (Bifidobacterium bifidum, UniProt A0ABM7ET56); experiment: fluorescence sialidase assay; assay type: biochemical; conditions: 50 μM recombinant protein, 30 min
T1 construct: gene BBBF_1779; His-tagged; native precursor 1,795 aa with Sec signal and C-terminal TM

[1] = molecular target: T2, His-Sia (sialidase domain of SiaBb2, aa 187 to 553) (Bifidobacterium bifidum, UniProt A0A1Y1C8G4); experiment: SPR, His-Sia immobilized on CM5 chip; conditions: HBS-EP pH 7.4, 25°C; binding decreased by 5 mM Neu5Ac2en; also glycoarray positive
T2 construct: conserved sialidase domain aa 187-553 of 835 aa precursor; N-terminal 6xHis tag; recombinant; biotinylated for glycoarray, immobilized on CM5 chip for SPR; GH33

His-SiaBb2 = molecular target: T3, His-SiaBb2 (Bifidobacterium bifidum, UniProt A0A1Y1C8G4); experiment: inhibition of sialidase activity, dose response; assay type: biochemical; conditions: maximal inhibition at […]
T3 construct: gene sia2; N-terminal 6xHis tag; native precursor 835 aa with Sec signal and C-terminal TM
T3 sequence (A0A1Y1C8G4 37-810): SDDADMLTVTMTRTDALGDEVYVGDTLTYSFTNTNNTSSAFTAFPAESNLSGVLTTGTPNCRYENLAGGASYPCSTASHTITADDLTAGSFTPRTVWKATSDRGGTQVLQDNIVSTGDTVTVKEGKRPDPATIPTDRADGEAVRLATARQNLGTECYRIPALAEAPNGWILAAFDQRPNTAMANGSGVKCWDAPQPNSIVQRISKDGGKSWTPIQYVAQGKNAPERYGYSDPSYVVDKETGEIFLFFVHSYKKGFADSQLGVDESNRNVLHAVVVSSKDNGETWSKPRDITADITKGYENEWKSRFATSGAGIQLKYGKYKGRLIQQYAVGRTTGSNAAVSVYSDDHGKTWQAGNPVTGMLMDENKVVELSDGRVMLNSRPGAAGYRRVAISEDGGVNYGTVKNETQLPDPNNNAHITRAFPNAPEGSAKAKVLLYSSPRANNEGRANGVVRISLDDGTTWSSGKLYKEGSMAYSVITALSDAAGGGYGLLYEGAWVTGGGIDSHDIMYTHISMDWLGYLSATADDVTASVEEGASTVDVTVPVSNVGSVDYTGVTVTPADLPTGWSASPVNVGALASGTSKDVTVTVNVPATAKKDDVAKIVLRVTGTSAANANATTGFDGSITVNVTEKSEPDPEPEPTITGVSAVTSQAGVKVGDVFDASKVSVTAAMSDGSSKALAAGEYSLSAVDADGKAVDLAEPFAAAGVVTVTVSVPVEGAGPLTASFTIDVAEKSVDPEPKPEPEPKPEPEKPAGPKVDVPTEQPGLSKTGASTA

T1 sequence (A0ABM7ET56 40-1795 limits assumed): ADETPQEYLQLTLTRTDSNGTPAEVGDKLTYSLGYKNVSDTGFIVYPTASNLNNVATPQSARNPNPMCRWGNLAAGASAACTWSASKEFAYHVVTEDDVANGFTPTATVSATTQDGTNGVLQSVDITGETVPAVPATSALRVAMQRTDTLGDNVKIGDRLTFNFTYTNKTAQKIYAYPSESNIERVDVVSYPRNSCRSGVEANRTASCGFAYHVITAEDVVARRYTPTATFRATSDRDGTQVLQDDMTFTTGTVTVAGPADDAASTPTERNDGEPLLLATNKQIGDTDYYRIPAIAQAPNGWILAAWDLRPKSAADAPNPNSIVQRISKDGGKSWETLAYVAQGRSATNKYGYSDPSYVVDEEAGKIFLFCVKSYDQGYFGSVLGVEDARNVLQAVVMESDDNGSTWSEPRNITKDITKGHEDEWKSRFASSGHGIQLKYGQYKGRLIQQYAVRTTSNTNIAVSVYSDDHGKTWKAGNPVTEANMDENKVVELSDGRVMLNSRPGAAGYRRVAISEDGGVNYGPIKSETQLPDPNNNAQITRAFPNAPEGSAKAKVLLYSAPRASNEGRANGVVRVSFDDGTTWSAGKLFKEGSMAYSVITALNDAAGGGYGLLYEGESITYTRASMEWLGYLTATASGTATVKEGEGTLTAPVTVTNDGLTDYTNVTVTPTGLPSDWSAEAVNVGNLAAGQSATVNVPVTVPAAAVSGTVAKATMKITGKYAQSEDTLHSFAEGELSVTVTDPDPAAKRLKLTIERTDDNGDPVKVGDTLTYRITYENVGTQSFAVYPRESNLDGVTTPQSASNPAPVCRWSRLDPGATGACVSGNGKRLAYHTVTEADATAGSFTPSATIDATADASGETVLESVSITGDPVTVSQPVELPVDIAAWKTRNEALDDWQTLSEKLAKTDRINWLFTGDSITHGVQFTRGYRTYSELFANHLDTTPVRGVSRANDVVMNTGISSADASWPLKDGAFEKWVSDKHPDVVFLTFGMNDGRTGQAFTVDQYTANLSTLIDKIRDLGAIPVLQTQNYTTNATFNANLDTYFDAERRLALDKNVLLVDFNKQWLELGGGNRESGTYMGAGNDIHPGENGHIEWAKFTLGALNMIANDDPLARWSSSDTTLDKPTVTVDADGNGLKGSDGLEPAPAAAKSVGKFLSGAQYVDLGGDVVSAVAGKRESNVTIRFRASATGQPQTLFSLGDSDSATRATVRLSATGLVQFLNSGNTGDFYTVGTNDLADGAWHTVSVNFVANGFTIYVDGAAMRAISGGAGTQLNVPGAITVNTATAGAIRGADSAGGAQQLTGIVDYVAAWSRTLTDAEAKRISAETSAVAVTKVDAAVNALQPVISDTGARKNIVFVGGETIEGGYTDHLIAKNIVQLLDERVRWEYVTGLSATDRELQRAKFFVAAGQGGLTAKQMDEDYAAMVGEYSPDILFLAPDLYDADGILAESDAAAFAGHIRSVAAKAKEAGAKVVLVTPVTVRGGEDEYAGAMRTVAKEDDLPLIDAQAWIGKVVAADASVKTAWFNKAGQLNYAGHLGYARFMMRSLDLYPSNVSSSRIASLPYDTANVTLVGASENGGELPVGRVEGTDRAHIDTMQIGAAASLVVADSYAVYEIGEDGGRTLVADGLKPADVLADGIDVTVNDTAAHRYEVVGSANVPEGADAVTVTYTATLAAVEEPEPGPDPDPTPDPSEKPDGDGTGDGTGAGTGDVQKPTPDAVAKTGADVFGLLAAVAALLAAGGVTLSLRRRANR

SMILES: CC(=O)N[C@H]1[C@H]([C@H](O)[C@H](O)CO)OC(Oc2ccc3c(C)cc(=O)oc3c2)(C(=O)O)C[C@@H]1O (stereo partly drawn) [4-MU-Neu5Ac, 2′-(4-methylumbelliferyl)-α-D-N-acetylneuraminic acid]
- fluorescence sialidase assay (His-SiaBb1): all sialidase peptides with the exception of His-ΔSia showed time-dependent enzymatic activity

- MR at 10 μM (analyte/ligand, end of association) [1]: 1.3
SMILES: CC(=O)N[C@H]1[C@H]([C@H](O)[C@H](O)CO)O[C@@](OC[C@H]2O[C@@H](O[C@H]3[C@H](O)[C@@H](O)C(O)O[C@@H]3CO)[C@H](O)[C@@H](O)[C@H]2O)(C(=O)O)C[C@@H]1O (stereo partly drawn) [6'SL]

SMILES: CC(=O)N[C@H]1[C@H]([C@H](O)[C@H](O)CO)OC(C(=O)O)=C[C@@H]1O [Neu5Ac2en, N-acetyl-2,3-didehydro-2-deoxyneuraminic acid]
- inhibition of sialidase activity, dose response (His-SiaBb2): Neu5Ac2en treatment inhibited the sialidase activity of His-SiaBb2 in a dose-dependent manner
